Legend:
Selumetinib = compound: Cn1cnc2c(F)c(Nc3ccc(Br)cc3Cl)c(C(=O)NOCCO)cc21 [Selumetinib]; conditions: max 10 µM
In short: (§1)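 After 24 hours at 37°C and 5% CO2 in 1536-well plates holding 7.5 μl of DMEM/F12 or RPMI with 10% FBS, cancer cell lines were dosed for 72 hours, with final DMSO typically 0.2%. Viability came from CellTiter-Glo 2.0 luminescence, scaled between the means of blank wells and DMSO wells. A non-linear mixed effects model fitted a two-parameter logistic curve to each dose response to give the single-agent IC50.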

Savolitinib = compound: C[C@@H](c1ccc2nccn2c1)n1nnc2ncc(-c3cnn(C)c3)nc21 [Savolitinib]; conditions: max 1 µM
In short: as §1

Crizotinib = compound: C[C@@H](Oc1cc(-c2cnn(C3CCNCC3)c2)cnc1N)c1c(Cl)ccc(F)c1Cl [Crizotinib]; conditions: max 10 µM
In short: as §1

Taselisib = compound: Cc1nc(-c2cn3c(n2)-c2ccc(-c4cnn(C(C)(C)C(N)=O)c4)cc2OCC3)n(C(C)C)n1 [Taselisib]; conditions: max 10 µM
In short: as §1

Dasatinib = compound: CC1=C(C(=CC=C1)Cl)NC(=O)C2=CN=C(S2)NC3=CC(=NC(=N3)C)N4CCN(CC4)CCO [Dasatinib]; conditions: max 2 µM
In short: as §1

SG3199 = compound: CC1=CN2[C@@H](C1)C=NC3=CC(=C(C=C3C2=O)OC)OCCCCCOC4=C(C=C5C(=C4)N=C[C@@H]6CC(=CN6C5=O)C)OC [SG3199]; conditions: max 0.001 µM
In short: as §1

SRA737 = compound: N#Cc1cnc(Nc2cc(NC[C@H]3CNCCO3)c(C(F)(F)F)cn2)cn1 [SRA737]; conditions: max 10 µM
In short: as §1

Olaparib = compound: O=C(c1cc(Cc2n[nH]c(=O)c3ccccc23)ccc1F)N1CCN(C(=O)C2CC2)CC1 [Olaparib]; conditions: max 10 µM
In short: as §1

5-Fluorouracil = compound: O=c1[nH]cc(F)c(=O)[nH]1 [5-Fluorouracil]; conditions: max 20 µM
In short: as §1

Prexasertib = compound: COc1cccc(OCCCN)c1-c1cc(Nc2cnc(C#N)cn2)n[nH]1 [Prexasertib]; conditions: max 1 µM
In short: as §1

AZD5363 = compound: C1CN(CCC1(C(=O)N[C@@H](CCO)C2=CC=C(C=C2)Cl)N)C3=NC=NC4=C3C=CN4 [AZD5363]; conditions: max 10 µM
In short: as §1

AZD2811 = compound: CCN(CCO)CCCOc1ccc2c(Nc3cc(CC(=O)Nc4cccc(F)c4)[nH]n3)ncnc2c1 [AZD2811]; conditions: max 1 µM
In short: as §1

Etoposide = compound: COc1cc([C@@H]2c3cc4c(cc3[C@@H](O[C@@H]3O[C@@H]5CO[C@@H](C)O[C@H]5[C@H](O)[C@H]3O)[C@H]3COC(=O)[C@H]23)OCO4)cc(OC)c1O [Etoposide]; conditions: max 10 µM
In short: as §1

Palbociclib = compound: CC(=O)c1c(C)c2cnc(Nc3ccc(N4CCNCC4)cn3)nc2n(C2CCCC2)c1=O [Palbociclib]; conditions: max 10 µM
In short: as §1

Trametinib = compound: CC(=O)Nc1cccc(-n2c(=O)n(C3CC3)c(=O)c3c(Nc4ccc(I)cc4F)n(C)c(=O)c(C)c32)c1 [Trametinib]; conditions: max 1 µM
In short: as §1

Doxorubicin = compound: COc1cccc2c1C(=O)c1c(O)c3c(c(O)c1C2=O)C[C@@](O)(C(=O)CO)C[C@@H]3O[C@H]1C[C@H](N)[C@H](O)[C@H](C)O1 [Doxorubicin]; conditions: max 1 µM
In short: as §1

MK-2206 = compound: NC1(c2ccc(-c3nc4ccn5c(=O)[nH]nc5c4cc3-c3ccccc3)cc2)CCC1 [MK-2206]; conditions: max 10 µM
In short: as §1

AZD6738 = compound: C[C@@H]1COCCN1C2=NC(=NC(=C2)C3(CC3)[S@](=N)(=O)C)C4=C5C=CNC5=NC=C4 [AZD6738]; conditions: max 10 µM
In short: as §1

Gefitinib = compound: COc1cc2ncnc(Nc3ccc(F)c(Cl)c3)c2cc1OCCCN1CCOCC1 [Gefitinib]; conditions: max 10 µM
In short: as §1

Alisertib = compound: COc1cc(Nc2ncc3c(n2)-c2ccc(Cl)cc2C(c2c(F)cccc2OC)=NC3)ccc1C(=O)O [Alisertib]; conditions: max 10 µM
In short: as §1

AZD8186 = compound: C[C@@H](Nc1cc(F)cc(F)c1)c1cc(C(=O)N(C)C)cc2c(=O)cc(N3CCOCC3)oc12 [AZD8186]; conditions: max 10 µM
In short: as §1

Lapatinib = compound: CS(=O)(=O)CCNCc1ccc(-c2ccc3ncnc(Nc4ccc(OCc5cccc(F)c5)c(Cl)c4)c3c2)o1 [Lapatinib]; conditions: max 10 µM
In short: as §1

AZD5153 = compound: COc1nnc2ccc(N3CCC(c4ccc(OCCN5CCN(C)C(=O)[C@H]5C)cc4)CC3)nn12 [AZD5153]; conditions: max 1 µM
In short: as §1

AZD1775 = compound: C=CCn1c(=O)c2cnc(Nc3ccc(N4CCN(C)CC4)cc3)nc2n1-c1cccc(C(C)(C)O)n1 [AZD1775]; conditions: max 3 µM
In short: as §1

Carboplatin = compound: C1CC(C1)(C(=O)[O-])C(=O)[O-].N.N.[Pt+2] [Carboplatin]; conditions: max 10 µM
In short: as §1

AZD0156 = compound: CN(C)CCCOc1ccc(-c2ccc3ncc4c(c3c2)n(C2CCOCC2)c(=O)n4C)cn1 [AZD0156]; conditions: max 3 µM
In short: as §1

AZD7648 = compound: Cc1cc2ncnn2cc1Nc1ncc2c(n1)n(C1CCOCC1)c(=O)n2C [AZD7648]; conditions: max 10 µM
In short: as §1

AZD5991 = compound: Cc1c2c(nn1C)CSCc1cc(n(C)n1)CSc1cc(c3ccccc3c1)OCCCc1c(C(=O)O)n(C)c3c-2c(Cl)ccc13 [AZD5991]; conditions: max 1 µM
In short: as §1

AZD4320 = compound: CN(CC[C@H](CSC1=CC=CC=C1)NC2=C(C=C(C=C2)S(=O)(=O)NC(=O)C3=CC=C(C=C3)N4CCC(CC4)[C@H](C5=CC=CC=C5C6=CC=C(C=C6)Cl)O)S(=O)(=O)C(F)(F)F)CCO [AZD4320]; conditions: max 1 µM
In short: as §1

Gemcitabine = compound: Nc1ccn([C@@H]2O[C@H](CO)[C@@H](O)C2(F)F)c(=O)n1 [Gemcitabine]; conditions: max 0.3 µM
In short: as §1

[1] = compound: O=C(Nc1ccc2[nH]nc(-c3ccncc3)c2c1)[C@@H]1CCN(CC(=O)N2CCN(c3ccc(-c4ncccn4)cc3)CC2)C1; conditions: max 5 µM
In short: as §1

Paclitaxel = compound: CC(=O)O[C@H]1C(=O)[C@@]2(C)[C@H]([C@H](OC(=O)c3ccccc3)[C@]3(O)C[C@H](OC(=O)[C@H](O)[C@@H](NC(=O)c4ccccc4)c4ccccc4)C(C)=C1C3(C)C)[C@]1(OC(C)=O)CO[C@@H]1C[C@@H]2O [Paclitaxel]; conditions: max 3 µM
In short: as §1

Venetoclax = compound: CC1(C)CCC(CN2CCN(c3ccc(C(=O)NS(=O)(=O)c4ccc(NCC5CCOCC5)c([N+](=O)[O-])c4)c(Oc4cnc5[nH]ccc5c4)c3)CC2)=C(c2ccc(Cl)cc2)C1 [Venetoclax]; conditions: max 1 µM
In short: as §1

SN-38 = compound: CCc1c2c(nc3ccc(O)cc13)-c1cc3c(c(=O)n1C2)COC(=O)[C@]3(O)CC [SN-38]; conditions: max 0.3 µM
In short: as §1

AZD1390 = compound: CC(C)n1c(=O)n(C)c2cnc3cc(F)c(-c4ccc(OCCCN5CCCCC5)nc4)cc3c21 [AZD1390]; conditions: max 0.3 µM
In short: as §1

Cell Line: NCI-H2342 (Lung Adenocarcinoma)
- IC50, cell viability 72 h (Selumetinib): > 10 µM
- IC50, cell viability 72 h (Savolitinib): > 1000 nM
- IC50, cell viability 72 h (Crizotinib): > 10 µM
- IC50, cell viability 72 h (Taselisib): > 10000 nM
- IC50, cell viability 72 h (Dasatinib): > 2000 nM
- IC50, cell viability 72 h (SG3199): > 1 nM
- IC50, cell viability 72 h (SRA737): > 10 µM
- IC50, cell viability 72 h (Olaparib): > 10 µM
- IC50, cell viability 72 h (5-Fluorouracil): > 20 µM
- IC50, cell viability 72 h (Prexasertib): > 1000 nM
- IC50, cell viability 72 h (AZD5363): > 10000 nM
- IC50, cell viability 72 h (AZD2811): > 1000 nM
- IC50, cell viability 72 h (Etoposide): > 10 µM
- IC50, cell viability 72 h (Palbociclib): > 10 µM
- IC50, cell viability 72 h (Trametinib): > 1000 nM
- IC50, cell viability 72 h (Doxorubicin): > 1000 nM
- IC50, cell viability 72 h (MK-2206): > 10 µM
- IC50, cell viability 72 h (AZD6738): > 10 µM
- IC50, cell viability 72 h (Gefitinib): > 10 µM
- IC50, cell viability 72 h (Alisertib): > 10 µM
- IC50, cell viability 72 h (AZD8186): > 10 µM
- IC50, cell viability 72 h (Lapatinib): > 10 µM
- IC50, cell viability 72 h (AZD5153): > 1000 nM
- IC50, cell viability 72 h (AZD1775): > 3000 nM
- IC50, cell viability 72 h (Carboplatin): > 10 µM
- IC50, cell viability 72 h (AZD0156): > 3000 nM
- IC50, cell viability 72 h (AZD7648): > 10 µM
- IC50, cell viability 72 h (AZD5991): > 1000 nM
- IC50, cell viability 72 h (AZD4320): > 1000 nM
- IC50, cell viability 72 h (Gemcitabine): > 300 nM
- IC50, cell viability 72 h [1]: > 5 µM
- IC50, cell viability 72 h (Paclitaxel): 27 nM
- IC50, cell viability 72 h (Venetoclax): > 1000 nM
- IC50, cell viability 72 h (SN-38): > 300 nM
- IC50, cell viability 72 h (AZD1390): > 300 nM

Cell Line: OPM-2 (Plasma Cell Myeloma)
- IC50, cell viability 72 h (Selumetinib): > 10 µM
- IC50, cell viability 72 h (Savolitinib): > 1000 nM
- IC50, cell viability 72 h (Crizotinib): 4.23 µM
- IC50, cell viability 72 h (Taselisib): 815 nM
- IC50, cell viability 72 h (Dasatinib): > 2000 nM
- IC50, cell viability 72 h (SG3199): > 1 nM
- IC50, cell viability 72 h (SRA737): 4.98 µM
- IC50, cell viability 72 h (Olaparib): > 10 µM
- IC50, cell viability 72 h (5-Fluorouracil): > 20 µM
- IC50, cell viability 72 h (Prexasertib): 21.3 nM
- IC50, cell viability 72 h (AZD5363): 1120 nM
- IC50, cell viability 72 h (AZD2811): > 1000 nM
- IC50, cell viability 72 h (Etoposide): 9.35 µM
- IC50, cell viability 72 h (Palbociclib): 8.6 µM
- IC50, cell viability 72 h (Trametinib): 670 nM
- IC50, cell viability 72 h (Doxorubicin): 754 nM
- IC50, cell viability 72 h (MK-2206): 4.97 µM
- IC50, cell viability 72 h (AZD6738): 3.92 µM
- IC50, cell viability 72 h (Gefitinib): > 10 µM
- IC50, cell viability 72 h (Alisertib): 5.67 µM
- IC50, cell viability 72 h (AZD8186): > 10 µM
- IC50, cell viability 72 h (Lapatinib): > 10 µM
- IC50, cell viability 72 h (AZD5153): 12.6 nM
- IC50, cell viability 72 h (AZD1775): 559 nM
- IC50, cell viability 72 h (Carboplatin): > 10 µM
- IC50, cell viability 72 h (AZD0156): > 3000 nM
- IC50, cell viability 72 h (AZD7648): > 10 µM
- IC50, cell viability 72 h (AZD5991): 32.3 nM
- IC50, cell viability 72 h (AZD4320): 691 nM
- IC50, cell viability 72 h (Gemcitabine): 98 nM
- IC50, cell viability 72 h [1]: > 5 µM
- IC50, cell viability 72 h (Paclitaxel): 6.68 nM
- IC50, cell viability 72 h (Venetoclax): > 1000 nM
- IC50, cell viability 72 h (SN-38): 108 nM
- IC50, cell viability 72 h (AZD1390): > 300 nM
